# Test results published in paper PMC11768771, “Identification of a New Pentafluorosulfanyl-Substituted Chalcone with Activity Against Hepatoma and Human Parasites” (Pharmaceuticals, 2025).
# Entries after “also recorded” stand apart in the source; their conditions may differ. Where two headings read alike, the source gives them in different places.
# Assays:
# HuH-7 [1] = assay: Antiproliferative activity, crystal violet assay; format: cell-based; details: Homo sapiens, Huh-7, 48 h, mean ± SD
# Method: (§3) Human hepatocellular carcinoma cell lines HepG2 (ATCC number: HB-8065) and HuH-7 (JCRB number: JCRB0403) were cultured at Roswell Park Memorial Institute (RPMI) 1640 Medium (Gibco, Thermo Fisher Scientific, Waltham, MA, USA) supplemented with 10% fetal bovine serum, 2 mM L-glutamine (Corning, Glendale, CA, USA), 100 U/mL penicillin and 100 µg/mL streptomycin (Bio&SELL, Feucht, Germany) at 37 °C, 5% CO2 in a humidified atmosphere in an incubator.
# (§4) Treatment-induced antiproliferative effects measured as a decrease in cell number were assessed by crystal violet (N-hexamethylpararosaniline from Sigma-Aldrich, Darmstadt, Germany) staining as described before [71, 88]. In brief, HepG2 and HuH-7 cells were seeded in 96-well plates and allowed to adhere to the bottom of the wells and grow for 72 h in an incubator (37 °C, 5% CO2, humidified atmosphere). Afterwards, the cells were treated with rising concentrations of the chalcones, sorafenib and 17-AAG. After 24 h, 48 h and 72 h, respectively, the cells were fixed using 1% glutaraldehyde and stained for 30 min with 0.1% crystal violet. The excess unbound dye was removed by rinsing with water for 30 min. Cells were then lysed by incubation with 0.2% Triton X-100 (Sigma-Aldrich, Darmstadt, Germany) overnight dissolving the bound dye. The extinction of crystal violet was measured at 570 nm using ELISA readers (Dynex Technologies, Denkendorf, Germany; GloMax® Discover Microplate Reader Promega, Madison, WI, USA). IC50 values are given as means ± SD of a minimum of three independent experiments performed in triplicates and more.
# HepG2 [2] = assay: Colony formation assay; format: cell-based, Human; details: HepG2, 14 days of growth under treatment
# Method: (§5) Long-term effects of drug treatment on proliferation and clonogenicity were assessed by colony formation assays. HCC cell lines were seeded at 1000 cells/well (HepG2) and 200 cells/well (HuH-7) in 6-well plates and allowed to adhere overnight. […] Untreated cells served as controls. After 14 d, the cells were washed with PBS, fixed with 4% formaldehyde for 1 h and stained with 0.5% crystal violet for 3 min. Excess crystal violet dye was removed by gently rinsing with water. Representative images were taken and stained colonies were counted. A colony was defined as a cell aggregate of 50 or more cells. n = 4 independent experiments were performed and significance was tested by one-way ANOVA assays.
# HepG2 [3] = assay: Antiproliferative activity, crystal violet assay; format: cell-based; details: Homo sapiens, HepG2, 48 h, mean ± SD
# Method: as §3, §4
# HuH-7 [4] = assay: Colony formation assay; format: cell-based, Human; details: HuH-7, 14 days of growth under treatment
# Method: as §5
# HuH-7 [5] = assay: Lactate dehydrogenase (LDH) assay, unspecific cytotoxicity; format: cell-based, Human; details: HuH-7, 1, 5 and 10 µM, 6 h and 24 h, vs untreated controls
# Method: (§1) To exclude unspecific compound-induced cytotoxicity as the predominant mode of action a lactate dehydrogenase (LDH) assay was performed using the Cytotoxicity Detection Kit^PLUS LDH (Roche Diagnostics GmbH, Mannheim, Germany, Cat. No. 4744934001) as described earlier. In short, HCC cells were seeded in 96-well plates at 8 × 10^3 cells/well (HepG2) and 10 × 10^3 cells/well (HuH-7). Following incubation overnight, the cells were treated with 246TMP-3SF5 and 17-AAG at final concentrations of 1 µM, 5 µM and 10 µM, respectively, for 6 h and 24 h. The formation of the red-brownish formazan dye, which is formed proportionally to the LDH enzyme activity in the sample, was measured at 490/600 nm using the GloMax® Discover Microplate Reader (Promega, Madison, WI, USA). Unspecific cytotoxicity was determined by measuring the percentage of LDH release into the supernatant of treated cells compared to untreated controls. Measurements were performed in triplicate in n = 3 independent experiments and mean percentage changes ± SEM as compared to controls are shown.
# HepG2 [6] = assay: as above; format: cell-based, Human; details: HepG2, 1, 5 and 10 µM, 6 h and 24 h, vs untreated controls
# Method: as §1
# [7] = tested on: T. gondii tachyzoites (RH strain); assay: Toxoplasma gondii testing assay; format: cell-based; details: for IC50: Toxoplasma gondii, T. gondii parasites cultivated in Vero cells; for SI selectivity index (Vero/T. gondii): ratio Vero IC50 / T. gondii IC50
# Method: Cells of the Vero cell line (ATCC® CCL81™, Manassas, VA, USA) were used to cultivate T. gondii tachyzoites (RH strain, a gift from Dr. Saeed El-Ashram, State Key Laboratory for Agrobiotechnology, China Agricultural University, Beijing, China). Effects of test compounds on T. gondii growth were investigated as published previously and expressed as IC50 values, which were calculated from three independent experiments [63, 89].
# L. major amastigotes = assay: Leishmania major testing assay, amastigotes; format: cell-based; details: for IC50: Leishmania major; for SI (Amastigotes) selectivity index (macrophages/L. major): ratio macrophages IC50 / amastigotes IC50
# Method: (§6) Promastigotes (obtained from a patient in 2016) and amastigotes of L. major were applied for drug testing according to previously published methods [63, 90]. IC50 values were calculated from three independent experiments.
# Hsp90 in HuH-7 cells = assay: Western blot analysis of Hsp90 expression; format: cell-based, Human; details: HuH-7, 24 h treatment
# Method: (§2) Changes in the level of protein expression were assessed through Western blotting. HepG2 and HuH-7 cells were seeded at a density of 1 × 10^6 cells/well in 100 mm petri dishes and incubated until the desired confluency. Drugs were added at given concentrations for 24 h. Untreated cells served as controls. After washing with PBS, the cells were frozen at −20 °C. Subsequently, radioimmunoprecipitation assay (RIPA) buffer mixed with one cOmplete™ Mini Protease Inhibitor tablet/10 mL (Roche Diagnostics GmbH, Mannheim, Germany) was added to lyse the cells. Following these steps, the protein levels were analyzed using the Pierce™ BCA Protein Assay Kit (Thermo Fisher Scientific, Waltham, USA) and protein levels were normalized to ensure equal protein loading of 20 µg/lane. Laemmli buffer and β-mercaptoethanol were added to the probes following denaturation at 96 °C for 10 min. Proteins were separated using SDS–PAGE and electro-transferred to polyvinylidene difluoride (PVDF) membranes. Membranes were blocked in 5% non-fat dry milk in Tris-buffered saline with 0.1% Tween-20 and incubated with primary antibody overnight at 4 °C. […] Blots of n = 3 independent experiments were generated. β-Actin expression served as a loading control and calculated values were normalized to its expression.
# Hsp90 in HepG2 cells = assay: Western blot analysis of Hsp90 expression; format: cell-based, Human; details: HepG2, 24 h treatment
# Method: as §2
# murine macrophages = assay: Macrophage cytotoxicity (MTT assay); format: cell-based; details: Mus musculus
# Method: (§7) Cytotoxicity to Vero cells or murine macrophages was evaluated using the MTT assay according to previously published articles and expressed as IC50 values which were determined from three independent experiments [63, 91].
# Vero monkey kidney cells = assay: Vero cell cytotoxicity (MTT assay); format: cell-based; details: Primates
# Method: as §7
# L. major promastigotes = assay: Leishmania major testing assay, promastigotes; format: cell-based; details: for SI (Promastigotes) selectivity index (macrophages/L. major): ratio macrophages IC50 / promastigotes IC50
# Method: as §6
# Hsp70 in HepG2 cells = assay: Western blot analysis of Hsp70 expression; format: cell-based, Human; details: HepG2, 24 h treatment
# Method: as §2
# Hsp70 in HuH-7 cells = assay: Western blot analysis of Hsp70 expression; format: cell-based, Human; details: HuH-7, 24 h treatment
# Method: as §2
# [8] = tested on: T. gondii tachyzoites (RH strain); design: method as in PMID 34174635; details: positive control; cited from earlier work
IC50 (HuH-7 [1]) [µM],IC50 (HepG2 [3]) [µM],IC50 (L. major amastigotes) [µM],IC50 (L. major promastigotes; Leishmania major) [µM],IC50 (L. major promastigotes) [µM],Compound,"Colony formation (long-term antiproliferative effect, clonogenicity) (HepG2 [2])","Colony formation (long-term antiproliferative effect, clonogenicity) (HuH-7 [4])",LDH release (non-specific toxicity) (HuH-7 [5]),LDH release (non-specific toxicity) (HepG2 [6]),IC50 [7] [µM],SI selectivity index (Vero/T. gondii) [7],SI (Amastigotes) selectivity index (macrophages/L. major) (L. major amastigotes),Hsp90 protein expression level (Hsp90 in HuH-7 cells),Hsp90 protein expression level (Hsp90 in HepG2 cells),IC50 (murine macrophages) [µM],IC50 (Vero monkey kidney cells) [µM],SI (Promastigotes) selectivity index (macrophages/L. major) (L. major promastigotes),Hsp70 protein expression level (Hsp70 in HepG2 cells),Hsp70 protein expression level (Hsp70 in HuH-7 cells),IC50 [8] [µM]
5.4 ± 0.6,4.4 ± 1,–,–,–,"CNC(=O)c1cc(Oc2ccc(NC(=O)Nc3ccc(Cl)c(C(F)(F)F)c3)cc2)ccn1 [Sorafenib, reference compound]",colony count did not differ much from the untreated controls,colony count did not differ much from the untreated controls,–,–,–,–,–,–,–,–,–,–,–,–,–
2.2 ± 0.3,1.3 ± 0.2,20.3,9.2,–,"COc1cc(OC)c(C(=O)/C=C/c2cccc(S(F)(F)(F)(F)F)c2)c(OC)c1 [246TMP-3SF5, 2′,4′,6′-trimethoxy-3-pentafluorosulfanylchalcone]",dose-dependent decrease in colonies formed; also recorded: close to no colonies formed,dose-dependent decrease in colonies formed; also recorded: close to no colonies formed,does not significantly increase LDH release,does not significantly increase LDH release,0.42,2.8,1.6,almost no changes,almost no changes,32.1,1.2,3.5,drastically increased,drastically increased,–
–,–,–,–,–,O=C1C(O)=C([C@H]2CC[C@H](c3ccc(Cl)cc3)CC2)C(=O)c2ccccc21 [ATO],–,–,–,–,–,–,–,–,–,–,–,–,–,–,0.07
> 10,> 10,28.4,< 1,0.86,COc1ccc(C(=O)/C=C/c2cccc([N+](=O)[O-])c2)c(OC)c1 [24DMP-3NO],–,–,–,–,2.2,2.4,0.89,–,–,25.2,5.4,29.3,–,–,–
> 10,> 10,28,2.2,–,COc1ccc(C(=O)/C=C/c2c3ccccc3cc3ccccc23)c(OC)c1 [24DMP-Anth],–,–,–,–,7.6,2.9,1.7,–,–,48.3,22.3,22.3,–,–,–
> 10,> 10,18.8,< 1,0.73,"COc1cc(OC)c(C(=O)/C=C/c2c3ccccc3cc3ccccc23)c(OC)c1 [246TMP-Anth, 2′,4′,6′-trimethoxy-9-anthracenylchalcone]",–,–,–,–,5.8,3.4,0.84,–,–,15.8,19.6,21.7,–,–,–
0.4 ± 0.4,1.6 ± 0.5,–,–,–,C=CCNC1=C2C[C@@H](C)C[C@H](OC)[C@H](O)[C@@H](C)/C=C(\C)[C@H](OC(N)=O)[C@@H](OC)/C=C\C=C(/C)C(=O)NC(=CC1=O)C2=O [17-AAG],inhibited colony formation significantly; also recorded: close to no colonies formed,inhibited colony formation significantly; also recorded: close to no colonies formed,–,–,–,–,–,–,–,–,–,–,–,–,–
> 10,> 10,33.7,1.8,–,COc1ccccc1C(=O)/C=C/c1c2ccccc2cc2ccccc12 [2MeO-Anth],–,–,–,–,9.8,2.3,1.5,–,–,48.8,22.8,26.6,–,–,–
